# Laboratory results from ChEMBL document CHEMBL1201862, “PubChem BioAssay data set” (2004).
# Calls of active or inactive are those of the source.
# Experiments:
# [1] = molecular target: Cannabinoid receptor 1 (Homo sapiens, UniProt P21554); assay: SAR analysis of antagonists of the Cannabinoid Receptor 1 using an Image-Based Assay. [Related pubchem assays (depositor defined):AID1961, AID1965]; type: functional
# [2] = molecular target: T1, Cannabinoid receptor 2 (Homo sapiens, UniProt P34972); assay: SAR analysis of antagonists of the Cannabinoid Receptor 2 using an Image-Based Assay - Set 2. [Related pubchem assays (depositor defined):AID1961, AID1965]; type: functional
# [3] = molecular target: T1, Cannabinoid receptor 2; assay: SAR analysis of agonists of the Cannabinoid Receptor 2 using an Image-Based Assay - Set 2. [Related pubchem assays (depositor defined):AID1961, AID1965]; type: functional
# [4] = molecular target: T2, G-protein coupled receptor 55 (Homo sapiens, UniProt Q9Y2T6); assay: GPR55 agonists via beta-arrestin recruitment, primary screen, imaging, U2OS cells, beta-arrestin-GFP redistribution (AID 1961); type: functional
# [5] = molecular target: T2, G-protein coupled receptor 55; assay: SAR analysis of selective Agonists of GPR55 using an Image-Based Assay. [Related pubchem assays (depositor defined):AID1961, AID1965]; type: functional
# [6] = molecular target: T3, Dual specificity protein phosphatase 3 (Homo sapiens, UniProt P51452); assay: VHR1 phosphatase inhibitors, biochemical (AID 1878)
# [7] = molecular target: T4, Dual specificity protein phosphatase 6 (Rattus norvegicus, UniProt Q64346); assay: MKP-3 phosphatase inhibitors, primary screen, biochemical, rat enzyme, in vitro (AID 425)
# T4 sequence (Q64346 whole entry): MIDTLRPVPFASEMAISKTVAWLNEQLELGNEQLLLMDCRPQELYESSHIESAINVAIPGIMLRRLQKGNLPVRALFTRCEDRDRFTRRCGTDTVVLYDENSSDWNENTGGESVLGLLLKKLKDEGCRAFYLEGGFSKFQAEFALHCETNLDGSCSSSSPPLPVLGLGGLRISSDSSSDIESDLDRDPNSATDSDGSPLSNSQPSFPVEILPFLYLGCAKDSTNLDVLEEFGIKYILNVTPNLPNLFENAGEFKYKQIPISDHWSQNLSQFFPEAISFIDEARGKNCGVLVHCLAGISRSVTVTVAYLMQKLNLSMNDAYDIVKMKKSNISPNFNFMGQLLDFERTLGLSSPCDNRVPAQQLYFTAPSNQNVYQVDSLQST
# [8] = molecular target: Eukaryotic translation initiation factor 4E (Mus musculus, UniProt P63073); assay: eIF4E–eIF4G protein interaction inhibitors, dose response, biochemical, TR-FRET (AID 855); type: functional;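 also: potency for disrupting eIF4E binding to eIF4GI seen as loss of FRET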
# [9] = molecular target: T5, Voltage-gated N-type calcium channel alpha-1B subunit/Amyloid beta A4 precursor protein-binding family A member 1 (Homo sapiens, UniProt Q00975+Q02410); type: protein assay
# [10] = molecular target: Induced myeloid leukemia cell differentiation protein Mcl-1 (Homo sapiens, UniProt Q07820); type: functional
# [11] = molecular target: T3, Dual specificity protein phosphatase 3; assay: VHR1 phosphatase inhibitors, primary screen, biochemical, absorbance, uHTS (AID 1654)
# [12] = molecular target: T5, Voltage-gated N-type calcium channel alpha-1B subunit/Amyloid beta A4 precursor protein-binding family A member 1; type: protein assay; remark: listed apart in the source
# [13] = molecular target: T6, Runt-related transcription factor 1/Core-binding factor subunit beta (Homo sapiens, UniProt Q01196+Q13951); assay: inhibitors of RUNX1 Runt–CBFb-SMMHC binding, primary screen, biochemical, FRET, Cerulean-Runt, Venus-CBFb-SMMHC, uHTS (AID 1434); type: protein assay;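 also: partner is the CBFb-SMMHC leukemia fusion protein rather than wild-type CBFb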
# [14] = molecular target: T7, Bcl-2-like protein 10 (Homo sapiens, UniProt Q9HD36); assay: displacers of TR3 peptide from Bcl-B, primary screen, selectivity assay for Bfl-1 inhibitor project, biochemical, fluorescence polarization, FITC-TR3 peptide (AID 748);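 also: fluorescence polarization from a fluorescein-labelled TR3 peptide binding purified Bcl-B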
# T7 sequence (Q9HD36 whole entry): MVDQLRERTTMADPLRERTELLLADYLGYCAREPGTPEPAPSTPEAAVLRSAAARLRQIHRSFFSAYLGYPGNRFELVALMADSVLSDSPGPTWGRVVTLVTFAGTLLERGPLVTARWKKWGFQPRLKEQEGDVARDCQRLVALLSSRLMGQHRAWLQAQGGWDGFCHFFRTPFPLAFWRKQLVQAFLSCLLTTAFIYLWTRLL
# [15] = molecular target: T6, Runt-related transcription factor 1/Core-binding factor subunit beta; assay: inhibitors of RUNX1 Runt–CBFb-SMMHC binding, biochemical, TR-FRET (AID 1438); type: protein assay
# [16] = molecular target: Glutathione-S-transferase (Schistosoma japonicum, UniProt Q26513); assay: biotin-GST/anti-GST TR-FRET signal inhibitors, dose response, artefact control for Vif-APOBEC3G degradation inhibitor project, biochemical (AID 1117362); type: functional
# [17] = molecular target: T8, Tyrosine-protein phosphatase non-receptor type 22 (Homo sapiens, UniProt Q9Y2R2); type: functional
# T8 sequence (Q9Y2R2 whole entry): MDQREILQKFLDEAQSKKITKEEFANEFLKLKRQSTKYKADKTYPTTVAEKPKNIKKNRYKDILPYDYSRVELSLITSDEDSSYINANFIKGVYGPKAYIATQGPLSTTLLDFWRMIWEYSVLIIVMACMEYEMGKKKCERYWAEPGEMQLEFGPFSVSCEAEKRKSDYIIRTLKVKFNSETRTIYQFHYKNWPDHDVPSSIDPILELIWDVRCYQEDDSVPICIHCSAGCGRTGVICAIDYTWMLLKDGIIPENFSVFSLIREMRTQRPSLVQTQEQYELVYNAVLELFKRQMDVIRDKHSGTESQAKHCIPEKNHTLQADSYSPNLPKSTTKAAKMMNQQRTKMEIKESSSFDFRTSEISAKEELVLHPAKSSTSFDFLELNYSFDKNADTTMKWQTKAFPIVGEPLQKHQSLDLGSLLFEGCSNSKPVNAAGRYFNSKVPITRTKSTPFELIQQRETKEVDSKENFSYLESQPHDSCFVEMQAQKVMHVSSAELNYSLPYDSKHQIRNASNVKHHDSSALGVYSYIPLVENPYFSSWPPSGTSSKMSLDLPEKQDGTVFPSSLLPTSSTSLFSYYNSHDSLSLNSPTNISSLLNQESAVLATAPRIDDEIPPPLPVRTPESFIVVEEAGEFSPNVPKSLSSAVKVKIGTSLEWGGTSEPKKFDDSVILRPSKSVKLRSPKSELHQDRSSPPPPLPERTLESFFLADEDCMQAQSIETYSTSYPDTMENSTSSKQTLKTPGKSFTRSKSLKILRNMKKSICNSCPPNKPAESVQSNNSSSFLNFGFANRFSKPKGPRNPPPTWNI
# [18] = molecular target: T8, Tyrosine-protein phosphatase non-receptor type 22; type: functional; remark: listed apart in the source
# [19] = molecular target: T9, Endoribonuclease toxin MazF (Escherichia coli K-12, UniProt P0AE70); assay: fluorescent RNA oligo signal without MazF, dose response, counter-screen for MazEF activator project, biochemical, fluorescence, single-stranded RNase substrate (AID 588502); type: functional
# T9 sequence (P0AE70 whole entry): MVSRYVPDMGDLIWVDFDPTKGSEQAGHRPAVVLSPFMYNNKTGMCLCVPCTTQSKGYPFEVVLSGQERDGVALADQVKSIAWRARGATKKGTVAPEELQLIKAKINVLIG
# [20] = molecular target: Troponin, cardiac muscle (Homo sapiens, UniProt P19429+P45379+P63316); assay: Fluorescence-based biochemical high throughput dose response assay for activators of the calcium sensitivity of cardiac Regulated Thin Filaments (RTF). [Related pubchem assays (depositor defined):AID493008, AID493018, AID504382, AID504383]; type: protein-complex assay
# [21] = molecular target: T10, Tyrosine-protein phosphatase non-receptor type 7 (Homo sapiens, UniProt P35236); type: functional
# T10 sequence (P35236 whole entry): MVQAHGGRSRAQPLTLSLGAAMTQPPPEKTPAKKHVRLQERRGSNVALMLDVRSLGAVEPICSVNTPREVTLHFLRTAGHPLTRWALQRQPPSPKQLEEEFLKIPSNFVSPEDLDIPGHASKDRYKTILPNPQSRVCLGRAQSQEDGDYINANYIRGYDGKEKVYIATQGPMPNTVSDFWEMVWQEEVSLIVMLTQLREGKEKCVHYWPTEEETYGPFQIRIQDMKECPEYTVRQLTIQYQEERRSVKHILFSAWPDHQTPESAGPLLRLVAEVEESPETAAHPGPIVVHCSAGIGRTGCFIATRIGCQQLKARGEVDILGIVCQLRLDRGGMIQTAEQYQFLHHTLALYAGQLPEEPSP
# [22] = molecular target: T9, Endoribonuclease toxin MazF; assay: MazF toxin RNase activators, dose response, biochemical, fluorescence, single-stranded RNA substrate, uHTS hits (AID 588481); type: functional
# [23] = molecular target: Signal transducer and activator of transcription 3 (Homo sapiens, UniProt P40763); assay: STAT3 inhibitors, late-stage profile, late-stage follow-up, cell-based, STAT1 panel, qPCR, cytotoxicity, panel member STAT3 Inhibition (AID 2078)
# [24] = molecular target: Signal transducer and activator of transcription 1-alpha/beta (Homo sapiens, UniProt P42224); assay: STAT3 inhibitors, late-stage profile, late-stage follow-up, cell-based, STAT1 panel, qPCR, cytotoxicity, panel member STAT1 Inhibition (AID 2078)
# [25] = molecular target: T11, Mu-type opioid receptor (Homo sapiens, UniProt P35372); assay: MOR antagonists, SAR follow-up, image-based (AID 2420); type: functional;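 also: compounds added before stimulation of receptor with agonist DAMGO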
# [26] = molecular target: T12, Delta-type opioid receptor (Homo sapiens, UniProt P41143); assay: DOR antagonists, SAR follow-up, image-based (AID 2357); type: functional
# [27] = molecular target: T11, Mu-type opioid receptor; assay: MOR agonists by imaging, SAR follow-up, image-based (AID 2352); type: functional
# [28] = molecular target: T13, Kappa-type opioid receptor (Homo sapiens, UniProt P41145); assay: KOR antagonists by imaging, SAR follow-up, image-based (AID 2348); type: functional
# [29] = molecular target: T12, Delta-type opioid receptor; assay: DOR agonists, SAR follow-up, image-based (AID 2370); type: functional
# [30] = molecular target: T13, Kappa-type opioid receptor; assay: kappa opioid receptor blockers, cell-based, luminescence, beta-arrestin, SAR follow-up (AID 2285); type: functional
# [31] = molecular target: T13, Kappa-type opioid receptor; assay: KOR agonist analogs, imaging readout, SAR follow-up, image-based (AID 2359); type: functional
# [32] = molecular target: T13, Kappa-type opioid receptor; assay: SAR analysis of small molecule agonists of the kappa opioid receptor via a luminescent beta-arrestin assay - Set 3. [Related pubchem assays (depositor defined):AID1777, AID1785, AID1786, AID1966, AID2133, AID2136, AID2284, AID2500]; type: functional
smiles,measurement,setting,value
CN(C)S(=O)(=O)c1ccc(N2CCCC2)c(C(=O)N2CCN(c3ccc([N+](=O)[O-])cc3)CC2)c1,IC50,[1],> 32 µM (inactive)
same,IC50,[2],> 32 µM (inactive)
same,EC50,[3],> 32 µM (inactive)
same,EC50,[4],0.689 µM (active)
same,EC50,[5],0.66 µM (active)
COc1cc(/C=C2\SC(=O)N(c3ccc(Cl)cc3)C2=O)cc([N+](=O)[O-])c1O,IC50,[6],2.3 µM (active)
same,IC50,[7],> 158 µM (not active)
same,IC50,[8],50 µM (inactive)
same,IC50,[9],> 50 µM (inactive)
same,IC50,[10],3.07 µM (active)
same,IC50,[11],2.92 µM (active)
same,IC50,[12],> 56.8 µM (not active)
CN1CCc2c(sc3c2c(NCc2ccco2)nc2nnnn23)C1,IC50,[13],80 µM (inactive)
same,IC50,[14],38.8 µM (active)
same,IC50,[15],56.3 µM (inactive)
same,IC50,[16],31.1 µM (active)
Cc1ccc(N=Nc2c(O)n(CN3CCOCC3)c3ccccc23)cc1,IC50,[17],> 79.4 µM (inactive)
same,IC50,[18],> 79.4 µM (inactive)
same,EC50,[19],50.5 µM (inactive)
same,EC50,[20],> 71.5 µM (inactive)
same,IC50,[21],> 79.4 µM (inactive)
same,EC50,[22],39.4 µM (inactive)
O=C(c1ccccc1)C1CCN(c2ncnc3sc4c(c23)CCCC4)CC1,IC50,[23],> 18.6 µM (inactive)
same,IC50,[24],> 55.7 µM (inactive)
Cc1ccc(C)c(N2CCN(CCCNC(=O)CCn3c(=O)c4cccn4c4cccnc43)CC2)c1,IC50,[25],> 32 µM (inactive)
same,IC50,[26],> 32 µM (inactive)
same,EC50,[27],> 32 µM (inactive)
same,IC50,[28],> 32 µM (inactive)
same,EC50,[29],> 32 µM (inactive)
same,IC50,[30],> 10 µM (inactive)
same,EC50,[31],> 32 µM (inactive)
Cc1ccc2nc(O)c(CN(Cc3ccccc3)C(=O)c3ccccn3)cc2c1,EC50,[32],9.25 µM (active)
